In article PMC10037152 (Plant Biotechnology Journal, 2023):

How the values were obtained:
3CL^pro of SARS-CoV-2 = 3CL^pro of SARS-CoV-2 (Severe acute respiratory syndrome coronavirus 2, UniProt P0DTD1); test: Inhibition activity against 3CLpro by fluorescence resonance energy transfer; type: biochemical; settings: read-out: IC50 against 3CL^pro; n = 3
PL^pro of SARS-CoV-2 = PL^pro of SARS-CoV-2 (Severe acute respiratory syndrome coronavirus 2, UniProt P0DTD1); test: Inhibition activity against PLpro by fluorescence resonance energy transfer; type: biochemical; settings: read-out: IC50 against PL^pro; n = 3

Which IC50 (3CL^pro of SARS-CoV-2) does the source give for `CC1(C)CC[C@]2(C(=O)O)CC[C@]3(C)C(=CC[C@@H]4[C@@]5(C)CC[C@H](O[C@@H]6O[C@H](CO)[C@@H](O)[C@H](O)[C@H]6O)C(C)(C)C5CC[C@]43C)[C@H]2C1` (some centres unmarked) [Compound 34, oleanolic acid‐3‐O‐glucoside] here?
Its IC50 is 5.95 µM.

And the IC50 (PL^pro of SARS-CoV-2)?
The IC50 was 7.57 µM.
